Results: BindingDB's records for doi:10.1002/cbic.200900108 (University of British Columbia, 2009)

Biological target: T1, Trans-sialidase (Trypanosoma cruzi, UniProt Q26966)
T1 sequence (Q26966 whole entry): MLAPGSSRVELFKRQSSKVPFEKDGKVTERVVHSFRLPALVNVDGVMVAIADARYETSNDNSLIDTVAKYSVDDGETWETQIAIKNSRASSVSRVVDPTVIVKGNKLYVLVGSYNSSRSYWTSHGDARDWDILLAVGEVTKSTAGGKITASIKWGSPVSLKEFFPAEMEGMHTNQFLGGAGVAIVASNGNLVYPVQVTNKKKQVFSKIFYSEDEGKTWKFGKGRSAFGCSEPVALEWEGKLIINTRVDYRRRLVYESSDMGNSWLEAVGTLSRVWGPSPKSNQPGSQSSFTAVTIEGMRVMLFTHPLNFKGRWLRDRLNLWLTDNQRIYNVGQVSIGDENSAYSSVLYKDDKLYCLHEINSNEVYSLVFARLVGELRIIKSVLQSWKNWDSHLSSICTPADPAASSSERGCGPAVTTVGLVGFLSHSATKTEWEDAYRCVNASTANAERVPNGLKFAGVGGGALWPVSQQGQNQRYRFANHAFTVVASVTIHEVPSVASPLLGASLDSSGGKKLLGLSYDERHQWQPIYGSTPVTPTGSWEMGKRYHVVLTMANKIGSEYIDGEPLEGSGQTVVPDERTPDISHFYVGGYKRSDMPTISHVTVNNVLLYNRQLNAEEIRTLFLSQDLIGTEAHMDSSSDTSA
Experiment: Inhibition Assay
Details: pH 7.6; 35 °C
Description: Inhibition assay using trans-sialidase, a membrane-associated protein.

SMILES	IC50	Ki
Cc1ccc(S(=O)(=O)Nc2ccc(C(=O)/C=C/c3ccc(O)c(O)c3)cc2)cc1	0.9 µM	4.6 µM
Cc1ccc(S(=O)(=O)N2c3ccccc3C(=O)/C(=C/c3ccc(O)c(O)c3)C2c2ccc(O)c(O)c2)cc1 (centres undefined) [Quinolinone derivative, 9]	0.6 µM	0.4 µM
Cc1ccc(S(=O)(=O)N2c3ccccc3C(=O)/C(=C/c3ccc(O)cc3)C2c2ccc(O)cc2)cc1 (centres undefined) [Quinolinone derivative, 8]	30 µM	–

The remaining lines, values ahead:

IC50	Ki	SMILES
2.5 µM	3.7 µM	Cc1ccc(S(=O)(=O)Nc2cccc(C(=O)/C=C/c3ccc(O)c(O)c3)c2)cc1
73 µM	–	Cc1ccc(S(=O)(=O)Nc2ccc(C(=O)/C=C/c3ccc(O)cc3)cc2)cc1
37 µM	–	Cc1ccc(S(=O)(=O)Nc2cccc(C(=O)/C=C/c3ccc(O)cc3)c2)cc1 [Sulfonamide chalcone, 6]
